What all share (type): in vivo
In assay [1] the test system is Rhipicephalus sanguineus. Nature of the assay: Rhipicephalus sanguineus in vitro contact test with adult brown dog ticks. The note with it: application rate 5 μg/cm^2 (500 g/ha); after 48 h; ticks dead or moribund. The method, then:
Rhipicephalus sanguineus—In Vitro Contact Tests with Adult Brown Dog Ticks
(§1) For the coating of the test tubes, 9 mg of active ingredient are first dissolved in 1 ml of acetone p.a. and then diluted to the desired concentration with acetone p.a. 250 μl of the solution are distributed homogeneously on the inner walls and base of a 25 ml test tube by turning and rocking on an orbital shaker (rocking rotation at 30 rpm for 2 h). With 900 ppm active ingredient solution and internal surface 44.7 cm^2, given homogeneous distribution, an area-based dose of 5 μg/cm^2 is achieved.
After the solvent has evaporated off, the tubes are populated with 5-10 adult dog ticks (Rhipicephalus sanguineus), sealed with a perforated plastic lid and incubated in a horizontal position in the dark at room temperature and ambient humidity. After 48 h, efficacy is determined. To this end, the ticks are knocked to the floor of the tube and incubated on a hotplate at 45-50° C. for not more than 5 min. Ticks which remain motionless on the floor or move in such an uncoordinated manner that they are unable to deliberately avoid the heat by climbing upwards are considered to be dead or moribund.
An efficacy of 100% means that all the ticks were dead or moribund. 0% efficacy means that none of the ticks had been harmed.

Assay [2] relates to Boophilus microplus. Briefly: Boophilus microplus injection test. The settings on record: application rate 20 μg/animal; injection into abdomen; assessed after 7 days. As for the experimental part: Boophilus microplus—Injection Test
(§2) Solvent: dimethyl sulphoxide
To produce an appropriate active ingredient formulation, 10 mg of active ingredient are mixed with 0.5 ml of solvent and the concentrate is diluted with solvent to the desired concentration.
1 μl of the active ingredient solution is injected into the abdomen of 5 engorged adult female cattle ticks (Boophilus microplus). The animals are transferred into dishes and kept in a climate-controlled room.
Efficacy is assessed after 7 days by laying of fertile eggs. Eggs which are not visibly fertile are stored in a climate-controlled cabinet until the larvae hatch after about 42 days. An efficacy of 100% means that none of the ticks has laid any fertile eggs; 0% means that all the eggs are fertile.

Assay [3] has as its system Spodoptera frugiperda. Nature of the assay: Spodoptera frugiperda spray test. The note with it: application rate 100 g/ha; caterpillars; after 7 days. As for the experimental part:
Spodoptera frugiperda—Spray Test
(§3) To produce an appropriate active ingredient formulation, 1 part by weight of active ingredient is dissolved using the specified parts by weight of solvent and made up with water containing an emulsifier concentration of 1000 ppm until the desired concentration is attained. To produce further test concentrations, the preparation is diluted with emulsifier-containing water.
Leaf discs of maize (Zea mays) are sprayed with an active ingredient formulation of the desired concentration and, after drying, populated with caterpillars of the armyworm (Spodoptera frugiperda).
After 7 days, efficacy in % is determined. 100% means that all the caterpillars have been killed; 0% means that no caterpillars have been killed.

Assay [4] deals with Musca domestica. Briefly: Musca domestica test. The settings on record: application rate 100 ppm; adult houseflies; after 2 days. As for the experimental part: as §2
(§4) To produce an appropriate active ingredient formulation, 10 mg of active ingredient are mixed with 0.5 ml of dimethyl sulphoxide, and the concentrate is diluted with water to the desired concentration.
Vessels containing a sponge treated with sugar solution and the active ingredient formulation of the desired concentration are populated with 10 adult houseflies (Musca domestica).
After 2 days, the kill in % is determined. 100% means that all of the flies have been killed; 0% means that none of the flies have been killed.

The test system of assay [5] is Lucilia cuprina. Nature of the assay: Lucilia cuprina test. The note with it: application rate 100 ppm; L1 larvae; after 2 days. The method, then:
as §2, §4
About 20 L1 larvae of the Australian sheep blowfly (Lucilia cuprina) are transferred into a test vessel containing minced horsemeat and the active ingredient preparation of the desired concentration.
After 2 days, the kill in % is determined. 100% means that all the larvae have been killed and 0% means that none of the larvae have been killed.

For assay [6], the system named is Ctenocephalides felis. Nature of the assay: Ctenocephalides felis oral test. The note with it: application rate 100 ppm in citrated cattle blood; after 2 days. As for the experimental part:
Ctenocephalides felis—Oral Test
as §2
For the purpose of producing an appropriate active ingredient formulation, 10 mg of active ingredient are mixed with 0.5 ml of dimethyl sulphoxide. Dilution with citrated cattle blood gives the desired concentration.
About 20 unfed adult cat fleas (Ctenocephalides felis) are placed into a chamber which is closed at the top and bottom with gauze. A metal cylinder whose bottom end is closed with parafilm is placed onto the chamber. The cylinder contains the blood/active ingredient preparation, which can be imbibed by the fleas through the parafilm membrane.
After 2 days, the kill in % is determined. 100% means that all of the fleas have been killed; 0% means that none of the fleas have been killed.

For assay [7], the system named is Phaedon cochleariae. Nature of the assay: Phaedon cochleariae spray test. The settings on record: application rate 100 g/ha; larvae; after 7 days. The method, then:
Phaedon cochleariae—Spray Test
as §3
Discs of Chinese cabbage leaves (Brassica pekinensis) are sprayed with an active ingredient formulation of the desired concentration and, after drying, populated with larvae of the mustard beetle (Phaedon cochleariae).
After 7 days, efficacy in % is determined. 100% means that all the beetle larvae have been killed; 0% means that no beetle larvae have been killed.

Assay [8] deals with Ctenocephalides felis. Briefly: Ctenocephalides felis in vitro contact test with adult cat fleas. The settings on record: application rate 5 μg/cm^2 (500 g/ha); after 48 h; fleas dead or moribund. The method, then:
Ctenocephalides felis—In Vitro Contact Tests with Adult Cat Fleas
as §1
After the solvent has evaporated off, the tubes are populated with 5-10 adult cat fleas (Ctenocephalides felis), sealed with a perforated plastic lid and incubated in a horizontal position at room temperature and ambient humidity. After 48 h, efficacy is determined. To this end, the test tubes are stood upright and the fleas are knocked to the base of the tube. Fleas which remain motionless at the base or move in an uncoordinated manner are considered to be dead or moribund.
100% efficacy means that all the fleas were dead or moribund. 0% efficacy means that no fleas were harmed.

Assay [9] deals with Tetranychus urticae. Nature of the assay: Tetranychus urticae spray test, OP-resistant. The note with it: application rate 100 g/ha; after 6 days. The method, then:
Tetranychus urticae—Spray Test, OP-Resistant
as §3
Discs of bean leaves (Phaseolus vulgaris) infested by all stages of the greenhouse red spider mite (Tetranychus urticae) are sprayed with an active ingredient formulation of the desired concentration.
After 6 days, efficacy in % is determined. 100% means that all the spider mites have been killed; 0% means that none of the spider mites have been killed.

On to `Cn1nc(C(F)(F)C(F)(F)F)c(C(F)(F)F)c1-n1cc(-c2cccc(NC(=O)C3CC3)c2)cn1` [Example 1-002], for which the efficacy is reported as 100% in assay [1], 83% in assay [3] and 100% in assay [7]. In addition, in assay [2], the “efficacy (laying of fertile eggs)” value was 100%. Besides, the “efficacy (kill in %)” value in [4], in [5] and in [6] was 100% throughout.

In the case of `Cn1nc(C(F)(F)C(F)(F)F)c(C(F)(F)F)c1-n1cc(-c2ccc(Cl)c(NC(=O)c3ccccc3)c2)cn1` [Example 1-023], the efficacy in [8], in [1], in assay [3], in assay [9] and in assay [7] was 100% throughout. The “efficacy (laying of fertile eggs)” value in assay [2] turned out to be 100%. The “efficacy (kill in %)” value in [5] and in assay [6] was 100% each time.

With `Cn1nc(C(F)(F)C(F)(F)F)c(C(F)(F)F)c1-n1cc(-c2ccc(F)c(NC(=O)C3(Cl)CC3)c2)cn1` [Example 1-032], in assay [1], the efficacy stood at 100%. Moreover, the “efficacy (laying of fertile eggs)” value in assay [2] worked out at 100%. Moreover, the “efficacy (kill in %)” value is recorded as 80% in assay [4], 100% in assay [5] and 100% in assay [6].

On to `Cn1nc(C(F)(F)C(F)(F)F)c(C(F)(F)F)c1-n1cc(-c2ccc(F)c(NC(=O)c3ccc(F)cc3)c2F)cn1` [Example 1-039], for which the efficacy in assay [8] is reported as 80%; in assay [3], 100%; in assay [9] it was 100%; in assay [7], 100%.

Regarding `C[C@@H](F)C(=O)Nc1cc(-c2cnn(-c3c(C(F)(F)F)c(C(F)(F)C(F)(F)F)nn3C)c2)ccc1F` [Example 1-066], the efficacy in [8] and in [1] was 100% each time. For the same compound, the “efficacy (laying of fertile eggs)” value in assay [2] was 100%. For the same compound, the “efficacy (kill in %)” value was 80% in assay [5] and 100% in assay [6].

For the compound `Cc1ccc(C(=O)Nc2cc(-c3cnn(-c4c(C(F)(F)F)c(C(F)(F)C(F)(F)F)nn4C)c3)ccc2F)s1` [Example 1-069], the efficacy was determined as 100% in assay [8]; 100% in [1]; 100% in assay [3]; 90% in assay [9]; 100% in [7]. In addition, the “efficacy (laying of fertile eggs)” value in assay [2] is 100%. Also, the “efficacy (kill in %)” value in [5] and in [6] was 100% each time.

In turn, `Cn1nc(C(F)(F)C(F)(F)F)c(C(F)(F)F)c1-n1cc(-c2ccc(F)c(NC(=O)c3cccc(C#N)c3)c2)cn1` [Example 1-075] returned an efficacy in [1] of 100%. The “efficacy (laying of fertile eggs)” value in assay [2] worked out at 100%. Further, the “efficacy (kill in %)” value in assay [4], in [5] and in assay [6] was 100% in each case.

Take `Cn1nc(C(F)(F)C(F)(F)F)c(C(F)(F)F)c1-n1cc(-c2ccc(F)c(NC(=O)C3CCCC3)c2)cn1` [Example 1-077]: in assay [1], the efficacy is reported as 100%. In assay [2], the “efficacy (laying of fertile eggs)” value amounted to 100%. The “efficacy (kill in %)” value in [4], in [5] and in assay [6] was 100% throughout.

Compound `Cc1ccc2c(Cl)c(C(=O)Nc3cc(-c4cnn(-c5c(C(F)(F)F)c(C(F)(F)C(F)(F)F)nn5C)c4)ccc3F)sc2c1` [Example 1-083] yielded an efficacy in [8] of 80%. Further, in [2], the “efficacy (laying of fertile eggs)” value is 80%.

For the compound `Cn1nc(C(F)(F)C(F)(F)F)c(C(F)(F)F)c1-n1cc(-c2ccc(F)c(NC(=O)c3cccnc3)c2)cn1` [Example 1-085], the efficacy in [8] stood at 100%; in [1], 100%; in assay [3], 83%; in assay [9], 100%; in assay [7], 100%. Further, the “efficacy (laying of fertile eggs)” value in assay [2] was 100%. The “efficacy (kill in %)” value in assay [5] and in assay [6] was 100% in each case.

For `Cc1cc(C(=O)Nc2cc(-c3cnn(-c4c(C(F)(F)F)c(C(F)(F)C(F)(F)F)nn4C)c3)ccc2F)ccc1F` [Example 1-091], the efficacy in assay [8], in assay [1], in assay [3], in [9] and in assay [7] was 100% throughout. In addition, the “efficacy (laying of fertile eggs)” value in assay [2] is listed as 100%. The “efficacy (kill in %)” value in assay [5] and in [6] was 100% in each case.

Turning to `COc1ccc(C(=O)Nc2cc(-c3cnn(-c4c(C(F)(F)F)c(C(F)(F)C(F)(F)F)nn4C)c3)ccc2F)cc1F` [Example 1-095], the efficacy in assay [8], in assay [1], in assay [3], in assay [9] and in assay [7] was 100% each time. The “efficacy (laying of fertile eggs)” value in assay [2] is reported as 100%. Also, the “efficacy (kill in %)” value in assay [5] and in assay [6] was 100% in each case.

Regarding `COc1cc(C(=O)Nc2cc(-c3cnn(-c4c(C(F)(F)F)c(C(F)(F)C(F)(F)F)nn4C)c3)ccc2F)ccc1C` [Example 1-097], the efficacy in [8], in assay [1], in [3], in assay [9] and in assay [7] was 100% in each case. Moreover, the “efficacy (laying of fertile eggs)” value in assay [2] is listed as 100%. For the same compound, the “efficacy (kill in %)” value in [5] and in [6] was 100% throughout.

Regarding `Cn1nc(C(F)(F)C(F)(F)F)c(C(F)(F)F)c1-n1cc(-c2ccc(F)c(NC(=O)C(C)(C)c3cccc(Cl)c3)c2)cn1` [Example 1-119], the “efficacy (laying of fertile eggs)” value in assay [2] amounted to 100%. Moreover, the “efficacy (kill in %)” value in assay [4] turned out to be 80%; in [5] it was 100%.

In the case of `Cn1nc(C(F)(F)C(F)(F)F)c(C(F)(F)F)c1-n1cc(-c2ccc(F)c(NC(=O)Cc3ccc(F)cc3Cl)c2)cn1` [Example 1-126], the “efficacy (laying of fertile eggs)” value in [2] amounted to 100%. Moreover, the results for the “efficacy (kill in %)” value in assay [4], in assay [5] and in assay [6] were 90%, 100% and 100%, respectively. The same compound registered an efficacy in assay [7] of 100%.

(Values after patent publication US10273226B2, “Pyrazolyl-heteroarylamides as pesticides” (Bayer Animal Health GmbH, priority 2014, dated 2019).)
